# Data from patent US20210247400A1, “ACTIVATION OF PATTERN-TRIGGERED IMMUNITY IN PLANTS BY LIPOOLIGOSACCHARID-SPECIFIC REDUCED ELICITATION (LORE) AND VARIANTS THEREOF” (Technische Universität München, priority 2018, published 2021).
# Columns and labels:
# [1] = system: AtFRK1 and AtNHL10; assay: Gene expression analysis (quantitative PCR of defence genes); conditions: 1 μM, four hours after elicitation, seedlings, FIG. 1G
# [2] = target: T1, LORE (Arabidopsis thaliana, UniProt O64782); assay: Aequorin luminescence measurements of [Ca^2+]cyt elevations in Arabidopsis seedlings; format: cell-based; conditions: for elicitor activity ([Ca^2+]cyt response): 5 μM, Col-0^AEQ or lore-1 seedlings, FIG. 2H-J
# T1 construct: aequorin-expressing wild-type (Col-0^AEQ) or lore-1 mutant seedlings; endogenous in cells; host or cells: Arabidopsis thaliana Col-0 / Col-0^AEQ seedlings and leaf discs
# T1 sequence (O64782 22-805): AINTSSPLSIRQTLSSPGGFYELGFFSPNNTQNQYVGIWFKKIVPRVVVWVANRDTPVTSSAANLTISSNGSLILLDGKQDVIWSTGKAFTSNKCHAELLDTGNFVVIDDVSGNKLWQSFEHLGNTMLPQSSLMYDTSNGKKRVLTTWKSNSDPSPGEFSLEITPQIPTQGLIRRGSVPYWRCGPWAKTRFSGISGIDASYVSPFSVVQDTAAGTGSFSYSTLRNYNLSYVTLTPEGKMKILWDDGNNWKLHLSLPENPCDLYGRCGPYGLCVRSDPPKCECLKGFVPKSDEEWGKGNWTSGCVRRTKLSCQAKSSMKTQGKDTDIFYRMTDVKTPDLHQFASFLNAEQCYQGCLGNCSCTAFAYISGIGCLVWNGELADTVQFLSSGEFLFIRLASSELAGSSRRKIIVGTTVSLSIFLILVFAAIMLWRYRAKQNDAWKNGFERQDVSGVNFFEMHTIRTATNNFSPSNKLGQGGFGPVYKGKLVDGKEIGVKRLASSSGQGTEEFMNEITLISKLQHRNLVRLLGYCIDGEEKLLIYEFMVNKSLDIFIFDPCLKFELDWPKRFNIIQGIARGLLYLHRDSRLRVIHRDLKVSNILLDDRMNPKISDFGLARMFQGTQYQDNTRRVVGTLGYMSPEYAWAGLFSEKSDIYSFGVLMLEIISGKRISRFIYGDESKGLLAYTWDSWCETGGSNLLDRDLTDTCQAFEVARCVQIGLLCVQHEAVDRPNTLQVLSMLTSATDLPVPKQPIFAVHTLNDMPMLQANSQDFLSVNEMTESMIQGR
# Procedure: Aequorin luminescence measurements were performed essentially as described (Ranf et al., 2012). In short, 8- to 10-days-old liquid-grown apoaequorin-expressing seedlings were placed individually in 96-well plates in MP-dH2O containing 5-10 μM coelenterazine-h (p.j.k. GmbH) in the dark overnight. Luminescence was recorded by scanning 2 rows in 10 sec intervals using a Luminoskan Ascent 2.1 (Thermo Scientific). Remaining aequorin was discharged by addition of 150 μl 2 M CaCl2) with 20% EtOH per well. [Ca^2+]cyt concentrations were calculated as L/Lmax (luminescence counts per sec/total luminescence counts remaining).
# [3] = system: Pst DC3000; assay: Induced resistance assay in Arabidopsis plants; format: in vivo, Pseudomonas syringae pv. tomato; conditions: FIG. 1J
# Procedure: After two or three days Pst DC3000 was syringe infiltrated into leaves 4 and 5 of the pretreated plants at 1×10^5 CFU/ml. Bacterial growth in infected leaves was determined 4 days later as described (Vlot et al., 2008). Statistical analysis (one-way analysis of variance, ANOVA, with Tukey's multiple comparison post-test) was applied separately for wild type and mutant plants using GraphPad Prism 7.0.
# [4] = target: T1, LORE; assay: PTI in Arabidopsis (biological assays, LORE dependence); format: cell-based; conditions: for elicitor activity / PTI responses / early PTI signalling reactions: 5 μM, [Ca^2+]cyt and ROS; for elicitor activity: FIG. 3B-E, FIG. 6B; for PTI responses ([Ca^2+]cyt signalling, ROS production, defence gene induction, MAPK activation; ROS in LORE-GFP-expressing N. benthamiana): FAs 1-5 μM, compared to mc-3-OH-FAs, FIG. 2A-G; for PTI responses: FIG. 3A,B; for early PTI signalling reactions: short-term exposure, FIG. 4D-E
# [5] = system: AtMPK3 and AtMPK6; assay: Immunoblot analysis of MAPK activation; format: cell-based, Arabidopsis thaliana; conditions: 5 μM, seedlings, FIG. 1H
# Procedure: MAPK activation was elicited in 14-days-old liquid-grown seedlings as described (Ranf et al., 2015) by adding MAMPs to the final concentrations indicated. […] Proteins were extracted in kinase extraction buffer containing 50 mM Tris/HCl pH 7.5, 100 mM NaCl, 20 mM EGTA, 30 mM beta-glycerophosphate, 30 mM 4-p-Nitrophenylphosphate, 4 mM NaF, 4 mM Na3VO4, 4 mM Na2MoO4, 10 mM DTT, 0.2% Tween 20, and 1× plant protease inhibitor cocktail P9599 (Sigma-Aldrich). […] total protein (according to Bradford Protein Assay, Bio-Rad) was separated by standard SDS polyacrylamide gel-electrophoresis (Mini-PROTEAN Tetra Cell, Bio-Rad) and blotted onto nitrocellulose membrane (Amersham™ Protran™ 0.2 μm NC, GE Healthcare) using a Trans-Blot® SD Semi-Dry Transfer Cell (Bio-Rad). Membranes were blocked in Protein-Free TBS Blocking Buffer (Pierce™) and immunostained with anti-phospho-MPK antibody (anti-phospho-p44/42-ERK, 1:1000, Cell Signaling Technology #9101) and anti-rabbit-IgG-peroxidase conjugate (A9169, 1:50000, Sigma-Aldrich) using SuperSignal™ West Dura Extended Duration Substrate (Thermo Scientific). ECL chemiluminescence was detected using a Fusion SL camera (Vilber Lourmat). Membranes were stained with Amido black to assess equal protein loading.
# [6] = target: T1, LORE; assay: ROS detection in Arabidopsis leaves (leaf discs); format: cell-based; conditions: 5 μM, leaf discs Col-0 or lore-5, FIG. 2D
# Procedure: ROS production was monitored as described (Ranf et al., 2015) in 3 mm leaf discs from 6-8 weeks-old soil-grown plants in 100 μl 5 μM L-012 (WAKO chemicals) and 2 μg/ml horseradish peroxidase (Type II, Roche) in MP-dH2O. For experiments including 4-OH-10:0 (19) and 5-OH-10:0 (20), 10 mM Tris pH 8 was added to the L-012/HRP mix. Luminescence was recorded as relative light units (RLU) in 1 min intervals using a Luminoskan Ascent 2.1 (Thermo Scientific) or a Tecan F200. After 10 min background reading, elicitors were added to the final concentrations indicated and luminescence readings continued over 45-60 min. Data are depicted after normalization to average ROS levels 5 min before elicitor application and subtraction of water or MeOH controls that were included for each genotype on the same plate.
# [7] = wild-type Arabidopsis plants pre-treated with 10 μM, titre at 4 dpi
# [8] = sample conc. used for biological assays 1 μM-5 μM (mostly)
# [9] = sample conc. used for biological assays 5 μM
structure (smiles),measurement,setting,value
"CCCCCCCC(O)CC(=O)O (racemic) [Compound 1, 3-hydroxydecanoic acid]",transcript accumulation of PTI response genes AtFRK1 and AtNHL10,[1],induced transcript accumulation
same,[Ca^2+]cyt elevations,"[2]; Col-0^AEQ seedlings, different concentrations (nanomolar to micromolar range), FIG. 1C",sufficient to elicit [Ca^2+]cyt elevations
same,systemic resistance to infection with Pst DC3000,[3]; lore-1 mutant plants pre-treated with 10 μM,systemic resistance was not activated
same,systemic resistance to infection with Pst DC3000,[3]; [7],more resistant to subsequent infection with virulent Pst DC3000
same,elicitor activity,[4],strongest elicitor activity
same,LORE-dependent,[4]; [8],Yes
same,PTI in Arabidopsis,[4]; [8],Yes
same,LORE-dependent,[4]; [9],Yes
same,PTI in Arabidopsis,[4]; [9],Yes
same,[Ca^2+]cyt or ROS signals,"[4]; subsequent application after mc-3-OH-FA-depleted LPS, FIG. 4A-C, FIG. 5",typical [Ca^2+]cyt or ROS signals were induced
same,phosphorylation of AtMPK3 and AtMPK6,[5],"phosphorylation of mitogen-activated protein kinases (MAPK), AtMPK3 and AtMPK6"
"CCCCCCCCCCCC(O)CC(=O)O (racemic) [Compound 7, 3-hydroxytetradecanoic acid]",systemic resistance to infection with Pst DC3000,[3]; [7],did not establish systemic resistance to bacterial infection
same,PTI signalling,[4]; FIG. 1D-H,did not induce PTI signalling
"CCCCCCCCCC(=O)NC1CCOC1=O (racemic) [Compound 43, N-Decanoyl-DL- homoserine lactone]",PTI in Arabidopsis,[4]; [9],No
"CCCCCCC/C=C\C(=O)O [Compound 17, (Z)-dec-2-enoic acid]","PTI responses ([Ca^2+]cyt signalling, ROS production, defence gene induction, MAPK activation; ROS in LORE-GFP-expressing N. benthamiana)",[4],weak and independent of LORE
"CCCCCCC/C=C/C(=O)O [Compound 18, (E)-dec-2-enoic acid]","PTI responses ([Ca^2+]cyt signalling, ROS production, defence gene induction, MAPK activation; ROS in LORE-GFP-expressing N. benthamiana)",[4],weak and independent of LORE
"CCCCCCC(O)CCC(=O)O (stereo not drawn) [Compound 19, 4-hydroxydecanoic acid]",LORE-dependent ROS production,[6],did not elicit LORE-dependent ROS production
"CCCCCC(O)CCCC(=O)O (stereo not drawn) [Compound 20, 5-hydroxydecanoic acid]",LORE-dependent ROS production,[6],did not elicit LORE-dependent ROS production
"CCCCCCCC(Cl)CC(=O)OC (stereo not drawn) [Compound 22, methyl 3-chlorodecanoate]",elicitor activity ([Ca^2+]cyt response),[2],abolished elicitor activity
"CCCCCCCC(=O)CC(=O)O [Compound 23, 3-oxodecanoic acid]",elicitor activity ([Ca^2+]cyt response),[2],induced a moderate LORE-dependent [Ca^2+]cyt response
"CCCCCCCC(CC(=O)O)OC (stereo not drawn) [Compound 24, 3-methoxydecanoic acid]",elicitor activity ([Ca^2+]cyt response),[2],abolished elicitor activity
"CCCCCCCC(CC(=O)O)OC(C)=O (stereo not drawn) [Compound 25, 3-acetoxydecanoic acid]",elicitor activity ([Ca^2+]cyt response),[2],abolished elicitor activity
"CCCCCCCC(O)CC (stereo not drawn) [Compound 27, decan-3-ol]",PTI responses,[4],"neither 3-decanol nor 1,3-decandiol elicited PTI responses"
"CCCCCCCC(O)CCO (stereo not drawn) [Compound 28, decane-1,3-diol]",PTI responses,[4],"neither 3-decanol nor 1,3-decandiol elicited PTI responses"
"CCCCCCCC(O)CC(=O)OC(C)(C)C (stereo not drawn) [Compound 30, tert-butyl-3-hydroxydecanoate]",elicitor activity,[4],inactive
"CCCCCCCC(O)CC(=O)N[C@H]1CCOC1=O (stereo partly drawn) [Compound 41, N-(3-Hydroxydecanoyl)-L-homoserine lactone]",early PTI signalling reactions,[4],did not elicit significant early PTI signalling reactions
same,PTI in Arabidopsis,[4]; [9],No
"CCCCCCCC(=O)CC(=O)N[C@H]1CCOC1=O [Compound 42, N-(3-Oxodecanoyl)-L-homoserine lactone]",early PTI signalling reactions,[4],did not elicit significant early PTI signalling reactions
same,PTI in Arabidopsis,[4]; [9],No
"CCCCCCC[C@@H](O)CC(=O)O [Compound 44, (R)-3-hydroxydecanoic acid]",immune signalling ([Ca^2+]cyt elevations),"[2]; different concentrations, Arabidopsis seedlings, FIG. 6A",induced stronger immune signalling than (S)-3-OH—C10:0 (45)
